Experiments:
barnyardgrass [1] = test: Test C preemergence; assay type: in vivo, Echinochloa crusgalli; settings: for Barnyardgrass plant response rating: 500 g ai/ha, preemergence, 0 to 100 scale (0 no effect, 100 complete control); for Plant response rating, Barnyardgrass: Preemergence, 125 g ai/ha, 0 to 100 scale, 0 no effect, 100 complete control
Summary of the method: (§1)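 Test material, in non-phytotoxic solvent with surfactant, was sprayed on the soil directly after seeding (preemergence) or on young plants of 2–10 cm with one to two leaves (postemergence). Greenhouse, 10 days; 0–100 visual control scale.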

blackgrass [2] = test: Test C preemergence; assay type: in vivo, Alopecurus myosuroides; settings: for Blackgrass plant response rating: 500 g ai/ha, preemergence, 0 to 100 scale (0 no effect, 100 complete control); for Plant response rating, Blackgrass: Preemergence, 125 g ai/ha, 0 to 100 scale, 0 no effect, 100 complete control
Summary of the method: as §1

corn [3] = test: Test C preemergence; assay type: in vivo, Zea mays; settings: for Corn plant response rating: 500 g ai/ha, preemergence, 0 to 100 scale (0 no effect, 100 complete control); for Plant response rating, Corn: Preemergence, 125 g ai/ha, 0 to 100 scale, 0 no effect, 100 complete control
Summary of the method: as §1

green foxtail [4] = test: Test C preemergence; assay type: in vivo, Setaria viridis; settings: for Foxtail, Green plant response rating: 500 g ai/ha, preemergence, 0 to 100 scale (0 no effect, 100 complete control); for Plant response rating, Foxtail, Green: Preemergence, 125 g ai/ha, 0 to 100 scale, 0 no effect, 100 complete control
Summary of the method: as §1

kochia [5] = test: Test C preemergence; assay type: in vivo, Bassia scoparia; settings: for Kochia plant response rating: 500 g ai/ha, preemergence, 0 to 100 scale (0 no effect, 100 complete control); for Plant response rating, Kochia: Preemergence, 125 g ai/ha, 0 to 100 scale, 0 no effect, 100 complete control
Summary of the method: as §1

oat, wild [6] = test: Test C preemergence; assay type: in vivo, Avena fatua; settings: for Oat, Wild plant response rating: 500 g ai/ha, preemergence, 0 to 100 scale (0 no effect, 100 complete control); for Plant response rating, Oat, Wild: Preemergence, 125 g ai/ha, 0 to 100 scale, 0 no effect, 100 complete control
Summary of the method: as §1

pigweed, palmer [7] = test: Test C preemergence; assay type: in vivo, Amaranthus palmeri; settings: for Pigweed, Palmer plant response rating: 500 g ai/ha, preemergence, 0 to 100 scale (0 no effect, 100 complete control); for Plant response rating, Pigweed, Palmer: Preemergence, 125 g ai/ha, 0 to 100 scale, 0 no effect, 100 complete control
Summary of the method: as §1

ragweed [8] = test: Test C preemergence; assay type: in vivo, Ambrosia artemisiifolia; settings: for Ragweed plant response rating: 500 g ai/ha, preemergence, 0 to 100 scale (0 no effect, 100 complete control); for Plant response rating, Ragweed: Preemergence, 125 g ai/ha, 0 to 100 scale, 0 no effect, 100 complete control
Summary of the method: as §1

ryegrass, Italian [9] = test: Test C preemergence; assay type: in vivo, Lolium multiflorum; settings: for Ryegrass, Italian plant response rating: 500 g ai/ha, preemergence, 0 to 100 scale (0 no effect, 100 complete control); for Plant response rating, Ryegrass, Italian: Preemergence, 125 g ai/ha, 0 to 100 scale, 0 no effect, 100 complete control
Summary of the method: as §1

soybean [10] = test: Test C preemergence; assay type: in vivo, Glycine max; settings: for Soybean plant response rating: 500 g ai/ha, preemergence, 0 to 100 scale (0 no effect, 100 complete control); for Plant response rating, Soybean: Preemergence, 125 g ai/ha, 0 to 100 scale, 0 no effect, 100 complete control
Summary of the method: as §1

wheat [11] = test: Test C preemergence; assay type: in vivo, Triticum aestivum; settings: for Wheat plant response rating: 500 g ai/ha, preemergence, 0 to 100 scale (0 no effect, 100 complete control); for Plant response rating, Wheat: Preemergence, 125 g ai/ha, 0 to 100 scale, 0 no effect, 100 complete control
Summary of the method: as §1

barnyardgrass [12] = test: Test C postemergence; assay type: in vivo, Echinochloa crusgalli; settings: 10 days, 0 to 100 scale (0 no effect, 100 complete control)
Summary of the method: as §1

blackgrass [13] = test: Test C postemergence; assay type: in vivo, Alopecurus myosuroides; settings: 10 days, 0 to 100 scale (0 no effect, 100 complete control)
Summary of the method: as §1

corn [14] = test: Test C postemergence; assay type: in vivo, Zea mays; settings: 10 days, 0 to 100 scale (0 no effect, 100 complete control)
Summary of the method: as §1

green foxtail [15] = test: Test C postemergence; assay type: in vivo, Setaria viridis; settings: 10 days, 0 to 100 scale (0 no effect, 100 complete control)
Summary of the method: as §1

kochia [16] = test: Test C postemergence; assay type: in vivo, Bassia scoparia; settings: 10 days, 0 to 100 scale (0 no effect, 100 complete control)
Summary of the method: as §1

oat, wild [17] = test: Test C postemergence; assay type: in vivo, Avena fatua; settings: 10 days, 0 to 100 scale (0 no effect, 100 complete control)
Summary of the method: as §1

pigweed, palmer [18] = test: Test C postemergence; assay type: in vivo, Amaranthus palmeri; settings: 10 days, 0 to 100 scale (0 no effect, 100 complete control)
Summary of the method: as §1

ragweed [19] = test: Test C postemergence; assay type: in vivo, Ambrosia artemisiifolia; settings: Postemergence, 125 g ai/ha; 0 to 100 scale (0 no effect, 100 complete control), 10 days
Summary of the method: as §1

ryegrass, Italian [20] = test: Test C postemergence; assay type: in vivo, Lolium multiflorum; settings: Postemergence, 125 g ai/ha; 0 to 100 scale (0 no effect, 100 complete control), 10 days
Summary of the method: as §1

soybean [21] = test: Test C postemergence; assay type: in vivo, Glycine max; settings: Postemergence, 125 g ai/ha; 0 to 100 scale (0 no effect, 100 complete control), 10 days
Summary of the method: as §1

wheat [22] = test: Test C postemergence; assay type: in vivo, Triticum aestivum; settings: Postemergence, 125 g ai/ha; 0 to 100 scale (0 no effect, 100 complete control), 10 days
Summary of the method: as §1

horseweed = test: Test C postemergence; assay type: in vivo, Erigeron canadensis; settings: 10 days, 0 to 100 scale (0 no effect, 100 complete control)
Summary of the method: as §1

barnyardgrass [23] = test: Test D flooded paddy test; assay type: in vivo, Echinochloa crus-galli; settings: 250 g ai/ha, applied to paddy water, visual rating after 13 to 14 days, scale 0 to 100 (0 no effect, 100 complete control)
Summary of the method: (§2)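 Post-flood water application at the 2-leaf stage; 3 cm flood depth kept constant; visual control rating 0–100 after 13–14 days greenhouse growth.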

ducksalad = test: Test D flooded paddy test; assay type: in vivo, Heteranthera limosa; settings: 250 g ai/ha, applied to paddy water, visual rating after 13 to 14 days, scale 0 to 100 (0 no effect, 100 complete control)
Summary of the method: as §2

rice = test: Test D flooded paddy test; assay type: in vivo, Oryza sativa; settings: 250 g ai/ha, applied to paddy water, visual rating after 13 to 14 days, scale 0 to 100 (0 no effect, 100 complete control)
Summary of the method: as §2

sedge, umbrella = test: Test D flooded paddy test; assay type: in vivo, Cyperus difformis; settings: 250 g ai/ha, applied to paddy water, visual rating after 13 to 14 days, scale 0 to 100 (0 no effect, 100 complete control)
Summary of the method: as §2

Cc1ccc(-n2cnc(C3(C#N)CC3)n2)cc1C(=O)N1C[C@H](C)Oc2c(Cl)cccc21 [Compound 398]
45: Plant response rating, Sedge, Umbrella (Flood) (sedge, umbrella)
15: Plant response rating, Ducksalad (Flood) (ducksalad) | Plant response rating, Rice (Flood) (rice)
90: Barnyardgrass plant response rating (barnyardgrass [1]) | Plant response rating, Kochia (kochia [5]) | Plant response rating, Blackgrass (blackgrass [13]; 500 g ai/ha, postemergence) | Plant response rating, Foxtail, Green (green foxtail [15]; 500 g ai/ha, postemergence) | Plant response rating, Kochia (kochia [16]; 500 g ai/ha, postemergence) | Plant response rating, Kochia (kochia [16]; Postemergence, 125 g ai/ha) | Plant response rating, Pigweed, Palmer (pigweed, palmer [18]; Postemergence, 125 g ai/ha)
70: Plant response rating, Blackgrass (blackgrass [13]; Postemergence, 125 g ai/ha) | Plant response rating, Foxtail, Green (green foxtail [15]; Postemergence, 125 g ai/ha) | Plant response rating, Ragweed (ragweed [19])
10: Plant response rating, Corn (corn [14]; Postemergence, 125 g ai/ha)
30: Plant response rating, Blackgrass (blackgrass [2]) | Ragweed plant response rating (ragweed [8]) | Plant response rating, Ryegrass, Italian (ryegrass, Italian [20])
80: Ryegrass, Italian plant response rating (ryegrass, Italian [9]) | Plant response rating, Corn (corn [14]; 500 g ai/ha, postemergence)
0: Corn plant response rating (corn [3]) | Plant response rating, Corn (corn [3]) | Plant response rating, Oat, Wild (oat, wild [6]) | Plant response rating, Ragweed (ragweed [8]) | Plant response rating, Wheat (wheat [11]) | Plant response rating, Oat, Wild (oat, wild [17]; Postemergence, 125 g ai/ha)
100: Foxtail, Green plant response rating (green foxtail [4]) | Plant response rating, Foxtail, Green (green foxtail [4]) | Kochia plant response rating (kochia [5]) | Pigweed, Palmer plant response rating (pigweed, palmer [7]) | Plant response rating, Pigweed, Palmer (pigweed, palmer [7]) | Plant response rating, Pigweed, Palmer (pigweed, palmer [18]; 500 g ai/ha, postemergence)
25: Plant response rating, Barnyardgrass (Flood) (barnyardgrass [23])
50: Plant response rating, Barnyardgrass (barnyardgrass [12]; 500 g ai/ha, postemergence)
40: Blackgrass plant response rating (blackgrass [2]) | Oat, Wild plant response rating (oat, wild [6]) | Plant response rating, Ryegrass, Italian (ryegrass, Italian [9]) | Plant response rating, Soybean (soybean [10])
20: Wheat plant response rating (wheat [11]) | Plant response rating, Barnyardgrass (barnyardgrass [12]; Postemergence, 125 g ai/ha) | Plant response rating, Soybean (soybean [21]) | Plant response rating, Wheat (wheat [22])
60: Plant response rating, Barnyardgrass (barnyardgrass [1]) | Soybean plant response rating (soybean [10]) | Plant response rating, Oat, Wild (oat, wild [17]; 500 g ai/ha, postemergence) | Plant response rating, Horseweed (horseweed; 500 g ai/ha, postemergence) | Plant response rating, Horseweed (horseweed; Postemergence, 125 g ai/ha)

CCOC[C@H]1CN(C(=O)c2cc(-n3cnc(C4CCC4)n3)cc3c2OCO3)c2cccc(Cl)c2O1 [Compound 399]
50: Plant response rating, Ryegrass, Italian (ryegrass, Italian [9]) | Plant response rating, Horseweed (horseweed; Postemergence, 125 g ai/ha)
10: Plant response rating, Barnyardgrass (barnyardgrass [1]) | Wheat plant response rating (wheat [11]) | Plant response rating, Corn (corn [14]; 500 g ai/ha, postemergence) | Plant response rating, Foxtail, Green (green foxtail [15]; Postemergence, 125 g ai/ha)
30: Oat, Wild plant response rating (oat, wild [6]) | Plant response rating, Ragweed (ragweed [8]) | Plant response rating, Barnyardgrass (barnyardgrass [12]; 500 g ai/ha, postemergence)
40: Plant response rating, Foxtail, Green (green foxtail [15]; 500 g ai/ha, postemergence)
20: Plant response rating, Foxtail, Green (green foxtail [4]) | Soybean plant response rating (soybean [10]) | Plant response rating, Barnyardgrass (barnyardgrass [12]; Postemergence, 125 g ai/ha) | Plant response rating, Blackgrass (blackgrass [13]; 500 g ai/ha, postemergence) | Plant response rating, Wheat (wheat [22])
100: Foxtail, Green plant response rating (green foxtail [4]) | Pigweed, Palmer plant response rating (pigweed, palmer [7]) | Plant response rating, Pigweed, Palmer (pigweed, palmer [7]) | Plant response rating, Pigweed, Palmer (pigweed, palmer [18]; 500 g ai/ha, postemergence) | Plant response rating, Pigweed, Palmer (pigweed, palmer [18]; Postemergence, 125 g ai/ha)
0: Blackgrass plant response rating (blackgrass [2]) | Plant response rating, Blackgrass (blackgrass [2]) | Corn plant response rating (corn [3]) | Plant response rating, Corn (corn [3]) | Plant response rating, Kochia (kochia [5]) | Plant response rating, Oat, Wild (oat, wild [6]) | Plant response rating, Soybean (soybean [10]) | Plant response rating, Wheat (wheat [11]) | Plant response rating, Blackgrass (blackgrass [13]; Postemergence, 125 g ai/ha) | Plant response rating, Corn (corn [14]; Postemergence, 125 g ai/ha) | Plant response rating, Oat, Wild (oat, wild [17]; 500 g ai/ha, postemergence) | Plant response rating, Oat, Wild (oat, wild [17]; Postemergence, 125 g ai/ha) | Plant response rating, Ryegrass, Italian (ryegrass, Italian [20]) | Plant response rating, Soybean (soybean [21]) | Plant response rating, Barnyardgrass (Flood) (barnyardgrass [23]) | Plant response rating, Ducksalad (Flood) (ducksalad) | Plant response rating, Rice (Flood) (rice) | Plant response rating, Sedge, Umbrella (Flood) (sedge, umbrella)
80: Ragweed plant response rating (ragweed [8])
70: Barnyardgrass plant response rating (barnyardgrass [1]) | Kochia plant response rating (kochia [5]) | Ryegrass, Italian plant response rating (ryegrass, Italian [9]) | Plant response rating, Ragweed (ragweed [19]) | Plant response rating, Horseweed (horseweed; 500 g ai/ha, postemergence)
90: Plant response rating, Kochia (kochia [16]; 500 g ai/ha, postemergence) | Plant response rating, Kochia (kochia [16]; Postemergence, 125 g ai/ha)

— patent US20260262643A1, “HERBICIDAL BENZOXAZINES” (FMC CORPORATION, priority 2022, published 2026)
